{
  "source": "patent US20230123601A1",
  "about": "“PHARMACEUTICAL COMBINATION OF ANTIVIRAL AGENTS TARGETING HBV AND/OR AN IMMUNE MODULATOR FOR TREATMENT OF HBV” (priority 2019, published 2023)",
  "test_system": "HBV",
  "test": "HBV-DNA levels in serum of AAV/HBV mice (qPCR)",
  "type": "in vivo, C57BL/6 mice",
  "parameters": "HBV-DNA levels in serum: unit not given here",
  "excerpt": "The AAV-HBV mouse model is generated by injecting C57BL/6 mice with recombinant adeno-associated virus harboring a replicable HBV genome (AAV-HBV). The rAAV8-1.3 HBV ayw virus stock was purchased from Beijing FivePlus Molecular Medicine Institute (Beijing, China). The animals (male, aged 4-5 weeks upon arrival) were purchased from SLAC Laboratory Animal Co. Ltd (Shanghai, China), acclimatized in the animal facility for 5-7 days, and then injected with 1×10^11 vector genome of AAV-HBV (diluted in 200 μL of PBS) through the tail vein. Persistence expression of HBV genome can be established after three weeks, with high levels of HBV viral markers including HBV DNA, HBsAg, and HBeAg in mouse serum. With stable HBV viremia and competent immune system of the C57BL/6 mice, the AAV-HBV mouse model was used to evaluate the in vivo anti-HBV efficacy of the compounds. The in-life part of the AAV-HBV study was conducted through contracted service at Covance Pharmaceutical Research and Development (Shanghai) Co. Ltd. (Covance Shanghai) and the post-life analysis using the serum was performed internally at Roche Innovation Center Shanghai (RICS).\nSeven days before compound treatment, blood samples were collected for serum preparation (˜15 μL), and based on HBV DNA, HBsAg levels in serum and body weight, the AAV-HBV infected animals were stratified into the different treatment groups.\nSaline (Group 01) and anti-HBV ASO of CMP ID NO: 15_1 at 1.5 or 7.5 mg/kg were dosed sub subcutaneously once a week during Day 0-49 on Days 0, 7, 14, 21, 28, 35, 42 and 49. TLR7 agonist of CMP ID NO: VI 100 mg/kg was administered by oral gavage once every other day during Day 0-55 (QOD) or once weekly during Day 0-49 on Days 0, 7, 14, 21, 28, 35, 42 and 49 (QW). The animals were weekly bled via retro-orbital sinus for sample collection throughout the study.\nInitially mice serum was diluted by a factor of 10 (1:10) with Phosphate buffered saline (PBS). DNA was extracted using the MagNA Pure 96 (Roche) robot. 50 μl of the diluted serum was mixed in a processing cartridge with 200 ul MagNA Pure 96 external lysis buffer (Roche, Cat. no. 06374913001) and incubated for 10 minutes. DNA was then extracted using the “MagNA Pure 96 DNA and Viral Nucleic Acid Small Volume Kit” (Roche, Cat. no. 06543588001) and the “Viral NA Plasma SV external lysis 2.0” protocol. DNA elution volume was 50 μl.\nQuantification of extracted HBV DNA was performed using a Taqman qPCR machine (ViiA7, life technologies). Each DNA sample was tested in duplicate in the PCR. 5 μl of DNA sample was added to 15 μl of PCR mastermix containing 10 μl TaqMan Gene Expression Master Mix (Applied Biosystems, Cat. no. 4369016), 0.5 μl PrimeTime XL qPCR Primer/Probe (IDT) and 4.5 μl distilled water in a 384 well plate and the PCR was performed using the following settings: UDG Incubation (2 min, 50° C.), Enzyme Activation (10 min, 95° C.) and PCR (40 cycles with 15 sec, 95° for Denaturing and 1 min, 60° C. for annealing and extension). DNA copy numbers were calculated from Ct values based on a HBV plasmid DNA standard curve by the ViiA7 software.\nTo evaluate the combination of the anti-HBV ASO and the TLR7 agonist in an in vivo system, a mouse model of chronic HBV infection was used. In the AAV/HBV mouse model described in the Materials and Method a persistent HBV infection is established resulting in expression of viral markers (HBsAg, HBeAg, HBV DNA) detectable in plasma. The effect on these viral markers upon treatment with the anti-HBV ASO of CMP ID NO: 15_1 (table 2, and FIG. 4) dosed at 1.5 mg/kg or 7.5 mg/kg and the TLR7 agonist of CMP ID NO: VI (table 3) dosed with […] every other day (QOD) or once weekly (QW) in monotherapy or in combination has been evaluated.",
  "data": [
    {"compound": "CC[C@H](OC(C)=O)[C@@H]1C[C@@H](O)[C@H](n2c(=O)sc3cnc(N)nc32)O1", "note": "[CMP ID NO: VI, [(1S)-1-[(2S,4R,5R)-5-(5-amino-2-oxo-thiazolo[4,5-d]pyrimidin-3-yl)-4-hydroxy-tetrahydrofuran-2-yl]propyl] acetate]", "values": [
      {"measurement": "HBV-DNA levels in serum", "setting": "TLR7 100 mg/kg QOD, D0", "value": "7.69 ± 0.19"},
      {"measurement": "HBV-DNA levels in serum", "setting": "TLR7 100 mg/kg QOD, D7", "value": "5.74 ± 0.62"},
      {"measurement": "HBV-DNA levels in serum", "setting": "TLR7 100 mg/kg QOD, D14, 100 mg/kg", "value": "5.73 ± 1.2"},
      {"measurement": "HBV-DNA levels in serum", "setting": "TLR7 100 mg/kg QOD, D21", "value": "5.55 ± 0.32"},
      {"measurement": "HBV-DNA levels in serum", "setting": "TLR7 100 mg/kg QOD, D28", "value": "5.23 ± 1.02"},
      {"measurement": "HBV-DNA levels in serum", "setting": "TLR7 100 mg/kg QOD, D35", "value": "4.69 ± 0.71"},
      {"measurement": "HBV-DNA levels in serum", "setting": "TLR7 100 mg/kg QOD, D42", "value": "4.72 ± 0.76"},
      {"measurement": "HBV-DNA levels in serum", "setting": "TLR7 100 mg/kg QOD, D49, 100 mg/kg", "value": "4.5 ± 0.55"},
      {"measurement": "HBV-DNA levels in serum", "setting": "TLR7 100 mg/kg QOD, D56", "value": "4.59 ± 0.65"},
      {"measurement": "HBV-DNA levels in serum", "setting": "TLR7 100 mg/kg QOD, D63, 100 mg/kg", "value": "5.3 ± 1.21"},
      {"measurement": "HBV-DNA levels in serum", "setting": "TLR7 100 mg/kg QOD, D70", "value": "5.95 ± 1.17"},
      {"measurement": "HBV-DNA levels in serum", "setting": "TLR7 100 mg/kg QOD, D77", "value": "6.01 ± 1.17"},
      {"measurement": "HBV-DNA levels in serum", "setting": "TLR7 100 mg/kg QOD, D84", "value": "6.26 ± 1.08"},
      {"measurement": "HBV-DNA levels in serum", "setting": "TLR7 100 mg/kg QOD, D91", "value": "5.81 ± 1.09"},
      {"measurement": "HBV-DNA levels in serum", "setting": "TLR7 100 mg/kg QOD, D98", "value": "6.02 ± 1.17"},
      {"measurement": "HBV-DNA levels in serum", "setting": "TLR7 100 mg/kg QOD, D105", "value": "6.23 ± 1.29"},
      {"measurement": "HBV-DNA levels in serum", "setting": "TLR7 100 mg/kg QOD, D111", "value": "6.77 ± 0.64"},
      {"measurement": "HBV-DNA levels in serum", "setting": "TLR7 100 mg/kg QW, D0, 100 mg/kg", "value": "7.68 ± 0.2"},
      {"measurement": "HBV-DNA levels in serum", "setting": "TLR7 100 mg/kg QW, D7", "value": "7.15 ± 0.67"},
      {"measurement": "HBV-DNA levels in serum", "setting": "TLR7 100 mg/kg QW, D14", "value": "7.14 ± 0.47"},
      {"measurement": "HBV-DNA levels in serum", "setting": "TLR7 100 mg/kg QW, D21", "value": "6.65 ± 0.75"},
      {"measurement": "HBV-DNA levels in serum", "setting": "TLR7 100 mg/kg QW, D28, 100 mg/kg", "value": "6.1 ± 1.25"},
      {"measurement": "HBV-DNA levels in serum", "setting": "TLR7 100 mg/kg QW, D35", "value": "6.61 ± 0.98"},
      {"measurement": "HBV-DNA levels in serum", "setting": "TLR7 100 mg/kg QW, D42, 100 mg/kg", "value": "6.4 ± 0.84"},
      {"measurement": "HBV-DNA levels in serum", "setting": "TLR7 100 mg/kg QW, D49", "value": "6.27 ± 0.89"},
      {"measurement": "HBV-DNA levels in serum", "setting": "TLR7 100 mg/kg QW, D56", "value": "6.74 ± 0.64"},
      {"measurement": "HBV-DNA levels in serum", "setting": "TLR7 100 mg/kg QW, D63, 100 mg/kg", "value": "6.72 ± 0.7"},
      {"measurement": "HBV-DNA levels in serum", "setting": "TLR7 100 mg/kg QW, D70, 100 mg/kg", "value": "6.8 ± 0.64"},
      {"measurement": "HBV-DNA levels in serum", "setting": "TLR7 100 mg/kg QW, D77", "value": "6.95 ± 0.53"},
      {"measurement": "HBV-DNA levels in serum", "setting": "TLR7 100 mg/kg QW, D84", "value": "6.87 ± 0.49"},
      {"measurement": "HBV-DNA levels in serum", "setting": "TLR7 100 mg/kg QW, D91", "value": "6.59 ± 0.52"},
      {"measurement": "HBV-DNA levels in serum", "setting": "TLR7 100 mg/kg QW, D98, 100 mg/kg", "value": "6.7 ± 0.4"},
      {"measurement": "HBV-DNA levels in serum", "setting": "TLR7 100 mg/kg QW, D105", "value": "6.93 ± 0.43"},
      {"measurement": "HBV-DNA levels in serum", "setting": "TLR7 100 mg/kg QW, D111", "value": "7.07 ± 0.45"},
      {"measurement": "HBV DNA rebound, distance to control group", "setting": "TLR7 agonist QOD or QW monotherapy, follow-up period", "value": "≤ 1", "unit": "log"},
      {"measurement": "reduction of HBV-DNA", "setting": "TLR7 agonist alone", "value": "only reached the LLOQ when dosed every other day (QOD)"},
      {"measurement": "timing of HBV DNA rebound", "setting": "TLR7 agonist monotherapy", "value": "occurred sooner after the end of treatment than it did in the anti-HBV ASO treated groups"},
      {"measurement": "maximal reduction of HBV-DNA", "setting": "TLR7 agonist monotherapy, QW dosing", "value": "around 1.5 log"}
    ]}
  ]
}
